# Data: patent publication US10336739B2, “4-hydroxy-3-(heteroaryl)pyridine-2-one APJ agonists” (BRISTOL-MYERS SQUIBB COMPANY, priority 2015, dated 2019)
# pEC50: −log10 of the molar value.
# Molecular target: human APJ receptor (Homo sapiens (Human), UniProt P35414)
# Assay: Intracellular cAMP accumulation assay (APJ hcAMP, HTRF)
# Format: cell-based
# Conditions: HEK293 cells stably expressing human APJ receptor; inhibition of forskolin-mediated cAMP production; read-out: Human APJ cAMP EC50 Potency range
# Procedure, shortened: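 HEK293 cells stably expressing human APJ, 5,000 per well, exposed to compound with […] IBMX and 2 μM forskolin for 30 minutes at room temperature. cAMP measured by HTRF after lysis and 60 min detection incubation. EC50 from sigmoidal variable-slope fits of inhibition of forskolin-induced cAMP, quantified against a cAMP standard curve.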
# Chain of human APJ receptor (P35414 whole entry): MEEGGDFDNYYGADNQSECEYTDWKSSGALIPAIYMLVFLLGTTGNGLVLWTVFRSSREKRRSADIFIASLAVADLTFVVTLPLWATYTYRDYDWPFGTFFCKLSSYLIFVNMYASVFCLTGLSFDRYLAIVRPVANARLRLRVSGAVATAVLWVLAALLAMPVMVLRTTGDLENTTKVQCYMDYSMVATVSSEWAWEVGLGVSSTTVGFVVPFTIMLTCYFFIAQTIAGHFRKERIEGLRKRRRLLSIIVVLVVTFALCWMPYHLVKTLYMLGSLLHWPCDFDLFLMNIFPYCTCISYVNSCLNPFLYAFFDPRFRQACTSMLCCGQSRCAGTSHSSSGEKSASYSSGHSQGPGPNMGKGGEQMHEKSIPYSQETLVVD
row,SMILES,pEC50
1,"CCNCc1[nH]c(=O)c(-c2nnc(Cc3ccc(Cl)cn3)o2)c(O)c1-c1c(OC)cccc1OC [Example 230, 3-{5-[(5-chloropyridin-2-yl)methyl]-1,3,4-oxadiazol-2-yl}-5-(2,6-dimethoxyphenyl)-6-[(ethylamino)methyl]pyridine-2,4-diol]",8.00 to 11.00
2,"CCOCc1nc(O)c(-c2nnc(Cc3noc4ccccc34)s2)c(O)c1-c1c(OC)cccc1OC [Example 231, 3-{5-[(1,2-benzoxazol-3-yl)methyl]-1,3,4-thiadiazol-2-yl}-5-(2,6-dimethoxyphenyl)-6-(ethoxymethyl)pyridine-2,4-diol]",7.00 to 8.00

# Same assay, conditions: HEK293 cells stably expressing human APJ receptor; inhibition of forskolin-mediated cAMP production; read-out: hAPJ cAMP EC50 (nM) Potency range
row,SMILES,EC50 [nM]
1,"CCOCc1nc(O)c(-c2nnc(Cc3ccc(Cl)cn3)s2)c(O)c1-c1c(OC)cccc1OC [Example 232, 3-{5-[(5-chloropyridin-2-yl)methyl]-1,3,4-thiadiazol-2-yl}-5-(2,6-dimethoxyphenyl)-6-(ethoxymethyl) pyridine-2,4-diol]",0.01 to 10
2,"COc1cccc(OC)c1-c1c(C2CCCC2)nc(O)c(-c2nnc(Cc3ccc(Cl)cn3)s2)c1O [Example 233, 3-{5-[(5-chloropyridin-2-yl)methyl]-1,3,4-thiadiazol-2-yl}-6-cyclopentyl-5-(2,6-dimethoxyphenyl) pyridine-2,4-diol]",10 to 100
3,"CCOCc1nc(O)c(-c2nnc(Cc3ccc(Cl)cc3)s2)c(O)c1-c1c(OC)cccc1OC [Example 234, 3-{5-[(4-chlorophenyl)-methyl]-1,3,4-thiadiazol-2-yl}-5-(2,6-dimethoxyphenyl)-6-(ethoxymethyl)-pyridine-2,4-diol]",10 to 100
4,"CCOCc1nc(O)c(-c2nnc(CNC(=O)c3ccccn3)s2)c(O)c1-c1c(OC)cccc1OC [Example 235, N-({5-[5-(2,6-dimethoxyphenyl)-6-(ethoxymethyl)-2,4-dihydroxypyridin-3-yl]-1,3,4-thiadiazol-2-yl}methyl) pyridine-2-carboxamide]",10 to 100
5,"CCOCc1nc(O)c(-c2nnc(Cc3ncc(Cl)cc3F)o2)c(O)c1-c1c(OC)cccc1OC [Example 237, 3-{5-[(5-chloro-3-fluoropyridin-2-yl)methyl]-1,3,4-oxadiazol-2-yl}-5-(2,6-dimethoxyphenyl)-6-(ethoxymethyl) pyridine-2,4-diol]",0.01 to 10
6,"COc1cccc(OC)c1-c1c(C2CCCC2)nc(O)c(-c2nnc(Cc3ccc(Cl)cn3)o2)c1O [Example 238, 3-{5-[(5-chloropyridin-2-yl)methyl]-1,3,4-oxadiazol-2-yl}-6-cyclopentyl-5-(2,6-dimethoxyphenyl) pyridine-2,4-diol]",0.01 to 10
7,"COc1cccc(OC)c1-c1c(C2CCCC2)[nH]c(=O)c(-c2nnc(Cc3ccc(Cl)cc3)o2)c1O [Example 239, 3-{5-[(4-chlorophenyl)methyl]-1,3,4-oxadiazol-2-yl}-6-cyclopentyl-5-(2,6-dimethoxyphenyl) pyridine-2,4-diol]",0.01 to 10
8,"COCCOCc1nc(O)c(-c2nnc(Cc3ccc(Cl)cn3)o2)c(O)c1-c1c(OC)cccc1OC [Example 240, 3-{5-[(5-chloropyridin-2-yl)methyl]-1,3,4-oxadiazol-2-yl}-5-(2,6-dimethoxyphenyl)-6-[(2-methoxyethoxy)methyl] pyridine-2,4-diol]",0.01 to 10
9,"COCCOCc1nc(O)c(-c2nnc(Cc3noc4ccccc34)o2)c(O)c1-c1c(OC)cccc1OC [Example 242, 3-{5-[(1,2-benzoxazol-3-yl)methyl]-1,3,4-oxadiazol-2-yl}-5-(2,6-dimethoxyphenyl)-6-[(2-methoxyethoxy)methyl]pyridine-2,4-diol]",10 to 100
10,"CCOCc1nc(O)c(-c2nnc(CNc3ccccc3)o2)c(O)c1-c1c(OC)cccc1OC [Example 243, 5-(2,6-dimethoxyphenyl)-6-(ethoxymethyl)-3-{5-[(phenylamino)methyl]-1,3,4-oxadiazol-2-yl}pyridine-2,4-diol]",10 to 100
11,"COCCOCc1nc(O)c(-c2nnc(Cc3ccc(Cl)cc3)o2)c(O)c1-c1c(OC)cccc1OC [Example 244, 3-{5-[(4-chlorophenyl)methyl]-1,3,4-oxadiazol-2-yl}-5-(2,6-dimethoxyphenyl)-6-[(2-methoxyethoxy)methyl]pyridine-2,4-diol]",10 to 100
12,"CCCCc1nc(O)c(-c2nnc(CNC(=O)c3ccccc3)o2)c(O)c1-c1cc(OC)ccc1OC [Example 246, N-({5-[6-butyl-5-(2,5-dimethoxyphenyl)-2,4-dihydroxy-pyridin-3-yl]-1,3,4-oxadiazol-2-yl}methyl) benzamide]",0.01 to 10
13,"CCCCc1nc(O)c(-c2nnc(CNC(=O)c3ccccc3)o2)c(O)c1-c1cc(C(C)C)ccc1OC [Example 247, N-[(5-{6-butyl-2,4-dihydroxy-5-[2-methoxy-5-(propan-2-yl)phenyl]pyridin-3-yl}-1,3,4-oxadiazol-2-yl)methyl] benzamide]",0.01 to 10
14,"CCOCc1nc(O)c(-c2nnc(Cc3noc4ccccc34)o2)c(O)c1-c1ccccc1OC [Example 248, 3-{5-[(1,2-benzoxazol-3-yl)methyl]-1,3,4-oxadiazol-2-yl}-6-(ethoxymethyl)-5-(2-methoxyphenyl) pyridine-2,4-diol]",0.01 to 10
15,"CCOCc1nc(O)c(-c2nnc(Cc3ccc(Cl)cc3)o2)c(O)c1-c1ccccc1OC [Example 249, 3-{5-[(4-chlorophenyl)methyl]-1,3,4-oxadiazol-2-yl}-6-(ethoxymethyl)-5-(2-methoxyphenyl) pyridine-2,4-diol]",0.01 to 10
16,"CCCCc1nc(O)c(-c2nnc(CNC(=O)c3ccccc3)o2)c(O)c1-c1cccc(OC)c1OC [Example 250, N-({5-[6-butyl-5-{2,3-dimethoxyphenyl)-2,4-dihydroxy-pyridin-3-yl]-1,3,4-oxadiazol-2-yl}methyl) benzamide]",0.01 to 10
17,"CCOCc1nc(O)c(-c2nnc(CNC(=O)c3ccccc3)o2)c(O)c1-c1ccccc1OC [Example 251, N-({5-[6-(ethoxymethyl)-2,4-dihydroxy-5-(2-methoxyphenyl)-pyridin-3-yl]-1,3,4-oxadiazol-2-yl}methyl) benzamide]",0.01 to 10
18,"CCCCc1nc(O)c(-c2nnc(CC(=O)Nc3cccnc3)o2)c(O)c1-c1c(OC)cccc1OC [Example 252, 2-{5-[6-butyl-5-(2,6-dimethoxyphenyl)-2,4-dihydroxy-pyridin-3-yl]-1,3,4-oxadiazol-2-yl}-N-(pyridin-3-yl)acetamide]",0.01 to 10
19,"CCOCc1nc(O)c(-c2nnc(CC(=O)Nc3nccs3)o2)c(O)c1-c1c(OC)cccc1OC [Example 253, 2-{5-[5-(2,6-dimethoxyphenyl)-6-(ethoxymethyl)-2,4-dihydroxypyridin-3-yl]-1,3,4-oxadiazol-2-yl}-N-(1,3-thiazol-2-yl)acetamide]",0.01 to 10
20,"CCCCc1nc(O)c(-c2nnc(CC(=O)NCc3nc4ccccc4s3)o2)c(O)c1-c1c(OC)cccc1OC [Example 254, N-[(1,3-benzothiazol-2-yl)methyl]-2-{5-[6-butyl-5-(2,6-dimethoxyphenyl)-2,4-dihydroxypyridin-3-yl]-1,3,4-oxadiazol-2-yl}acetamide]",0.01 to 10
21,"CCCCc1nc(O)c(-c2nnc(CC(=O)NCc3cccnc3)o2)c(O)c1-c1c(OC)cccc1OC [Example 255, 2-{5-[6-butyl-5-(2,6-dimethoxyphenyl)-2,4-dihydroxy-pyridin-3-yl]-1,3,4-oxadiazol-2-yl}-N-[(pyridin-3-yl)methyl] acetamide]",0.01 to 10
22,"CCCCc1nc(O)c(-c2nnc(CC(=O)NCc3ncco3)o2)c(O)c1-c1c(OC)cccc1OC [Example 256, 2-{5-[6-butyl-5-(2,6-dimethoxyphenyl)-2,4-dihydroxypyridin-3-yl]-1,3,4-oxadiazol-2-yl}-N-[(1,3-oxazol-2-yl)methyl] acetamide]",0.01 to 10
23,"CCCCc1nc(O)c(-c2nnc(CC(=O)NCCc3ccc(S(N)(=O)=O)cc3)o2)c(O)c1-c1c(OC)cccc1OC [Example 257, 2-{5-[6-butyl-5-(2,6-dimethoxyphenyl)-2,4-dihydroxy-pyridin-3-yl]-1,3,4-oxadiazol-2-yl}-N-[2-(4-sulfamoylphenyl)ethyl]acetamide]",0.01 to 10
24,"CCCCc1nc(O)c(-c2nnc(CC(=O)NCCc3ccccc3Cl)o2)c(O)c1-c1c(OC)cccc1OC [Example 258, 2-{5-[6-butyl-5-(2,6-dimethoxyphenyl)-2,4-dihydroxy-pyridin-3-yl]-1,3,4-oxadiazol-2-yl}-N-[2-(2-chlorophenyl)ethyl]acetamide]",0.01 to 10
25,"CCCCc1nc(O)c(-c2nnc(CC(=O)NCc3cccc(Cl)c3)o2)c(O)c1-c1c(OC)cccc1OC [Example 259, 2-{5-[6-butyl-5-(2,6-dimethoxyphenyl)-2,4-dihydroxy-pyridin-3-yl]-1,3,4-oxadiazol-2-yl}-N-[(3-chlorophenyl)methyl]acetamide]",0.01 to 10
26,"CCCCc1nc(O)c(-c2nnc(CC(=O)N(C)Cc3ccccc3)o2)c(O)c1-c1c(OC)cccc1OC [Example 260, N-benzyl-2-{5-[6-butyl-5-(2,6-dimethoxyphenyl)-2,4-dihydroxy-pyridin-3-yl]-1,3,4-oxadiazol-2-yl}-N-methylacetamide]",0.01 to 10
27,"CCCCc1nc(O)c(-c2nnc(CC(=O)N(C)CCc3ccccc3)o2)c(O)c1-c1c(OC)cccc1OC [Example 261, 2-{5-[6-butyl-5-(2,6-dimethoxyphenyl)-2,4-dihydroxy-pyridin-3-yl]-1,3,4-oxadiazol-2-yl}-N-methyl-N-(2-phenylethyl) acetamide]",0.01 to 10

# Same assay, conditions: hAPJ cAMP EC50 (nM) Potency range, HEK293 cells stably expressing human APJ receptor; inhibition of forskolin-mediated cAMP production
row,SMILES,EC50 [nM]
1,"CCCCc1nc(O)c(-c2nnc(Cc3ncc(Cl)cc3F)o2)c(O)c1-c1c(OC)cccc1OC [Example 236, 6-butyl-3-{5-[(5-chloro-3-fluoropyridin-2-yl)methyl]-1,3,4-oxadiazol-2-yl}-5-(2,6-dimethoxyphenyl) pyridine-2,4-diol]",10 to 100
